Measurements as given in patent US11530244B2, “Cyclic polypeptides for PCSK9 inhibition” (priority 2018, dated 2022).
Starred links: 1 amine or outer side, 2 acyl side, 3 side chain; linkers in the order of their positions; H or OH if unused. Positions of bridges follow the written chain, without caps; N, C: chain ends. Non-standard residues stand in square brackets, D forms with d. Residues, ends and D or L forms follow the SMILES beside them. Groups on a side chain read outwards from the residue. *: point of attachment. Phe(3-CH2NH2) = O=C([C@H](Cc1cccc(CN[*:3])c1)N[*:1])[*:2]; PEG12 = NCCOCCOCCOCCOCCOCCOCCOCCOCCOCCOCCOCCOCCC(=O)O; X1 = O=C1CC[C@@H](C(=O)[*:1])N1CCCSCc1cccc(C[*:2])c1; Ala(imidazol-2-yl) = N[C@@H](Cc1ncc[nH]1)C(=O)O; Trp(5-F) = N[C@@H](Cc1c[nH]c2ccc(F)cc12)C(=O)O; X49 = NCCCC[C@H](N[*:1])c1nc(C(=O)[*:2])co1; X3 = O=C(CCSCc1cc(F)cc(CSCCN[*:1])c1)[*:2]; γGlu = O=C(O)[C@H](CCC(=O)[*:2])N[*:1]; mXylylene = c1cc(C[*:1])cc(C[*:2])c1; X48 = CC(N[*:1])c1ncc(C(=O)[*:2])s1; Adipoyl = O=C(CCCCC(=O)[*:2])[*:1]; Glutaryl = O=C(CCCC(=O)[*:2])[*:1]; Lys(Me2) = CN(C)CCCC[C@H](N)C(=O)O; Palmitoyl = CCCCCCCCCCCCCCCC(=O)*; PEG4 = NCCOCCOCCOCCOCCC(=O)O; αMeP = C[C@@]1(C(=O)O)CCCN1; AEEEA = NCCOCCOCCOCC(=O)O; X51 = COCCOCCOCCOCCC(=O)*; Aun = NCCCCCCCCCCC(=O)O; PEG2 = NCCOCCOCCC(=O)O; AEEA = NCCOCCOCC(=O)O; Mpa = O=C(O)CCS

How the values were obtained:
PCSK9 [1] = target: T1, PCSK9 (Homo sapiens (Human), UniProt Q8NBP7); experiment: PCSK9 Alexa FRET Standard assay (displacement of AlexaFluor647 tagged cyclic peptide Reagent A); format: binding; conditions: PCSK9 Alexa FRET Standard assay, 0.5 nM PCSK9, 20 nM AF cyclic peptide Reagent A; read-out: IC50
Method in brief: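 TR-FRET displacement: 0.5 nM biotinylated PCSK9 with 1.25 nM Strep-Eu and 20 nM AlexaFluor-tagged cyclic peptide (final) in 50 mM HEPES pH 7.4, 0.15 M NaCl, 5 mM CaCl2, 0.01% BSA, 0.01% P20, ≥2 h at room temperature. IC50 from sigmoidal fit, converted to Ki via peptide KD; falling Eu counts flagged false positives.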

PCSK9 [2] = target: T1, PCSK9; experiment: PCSK9 Alexa FRET Plus assay (displacement of AlexaFluor647 tagged cyclic peptide Reagent B); format: binding; conditions: Alexa FRET Plus, 0.5 nM PCSK9, 960 nM AF cyclic peptide Reagent B; read-out: IC50
Method in brief: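 TR-FRET displacement with final 0.5 nM biotinylated PCSK9, 1.25 nM Strep-Eu and 960 nM AlexaFluor-tagged cyclic peptide in HEPES pH 7.4, NaCl, CaCl2, BSA, P20; ≥2 h at room temperature. IC50 from sigmoidal fit, converted to Ki using peptide KD. Falling europium counts flagged false positives.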

T1 sequence (Q8NBP7 153-692): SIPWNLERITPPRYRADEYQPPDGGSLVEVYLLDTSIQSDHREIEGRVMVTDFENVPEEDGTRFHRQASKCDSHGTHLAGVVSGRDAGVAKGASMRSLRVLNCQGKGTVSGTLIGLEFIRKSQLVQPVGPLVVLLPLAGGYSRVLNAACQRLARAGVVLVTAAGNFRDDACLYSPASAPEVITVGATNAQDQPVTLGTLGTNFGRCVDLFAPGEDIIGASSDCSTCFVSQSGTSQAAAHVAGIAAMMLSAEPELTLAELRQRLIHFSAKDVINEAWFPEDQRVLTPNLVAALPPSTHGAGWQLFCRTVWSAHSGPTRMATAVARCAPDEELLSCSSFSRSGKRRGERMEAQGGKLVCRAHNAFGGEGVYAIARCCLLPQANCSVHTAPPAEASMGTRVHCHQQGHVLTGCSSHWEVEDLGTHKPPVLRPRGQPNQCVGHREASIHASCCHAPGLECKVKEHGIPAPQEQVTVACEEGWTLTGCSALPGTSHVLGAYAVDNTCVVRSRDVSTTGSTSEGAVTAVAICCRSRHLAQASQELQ

IC50 (PCSK9 [1]) [nM] | IC50 (PCSK9 [2]) [nM] | SMILES
21000 to 50000 | 500 to 5000 | CCCCCCCCCCCCCCCC(=O)N[C@@H](CCC(=O)NCCOCCOCC(=O)NCCOCCOCC(=O)NCCCC[C@@H]1NC(=O)CCSCc2cccc(c2)CSC[C@@H](C(N)=O)NC(=O)[C@]2(C)CCCN2C(=O)[C@H](Cc2ccc(O)cc2)NC(=O)[C@H](Cc2cnc[nH]2)NC(=O)[C@H](CC(=O)O)NC(=O)[C@H](Cc2c[nH]c3ccc(F)cc23)NC(=O)[C@H](Cc2c[nH]c3ccc(F)cc23)NC(=O)[C@@H](C)NC1=O)C(=O)O [Compound 456] ([Mpa]K([AEEA-AEEA-γGlu-Palmitoyl])[dA][Trp(5-F)][Trp(5-F)]DHY[αMeP]C-NH2; linker 1-10 via mXylylene)
21000 to 50000 | 500 to 5000 | NC(=O)[C@@H]1Cc2cccc(c2)CNC(=O)CCCC(=O)NCC(=O)N[C@@H](Cc2c[nH]c3ccc(F)cc23)C(=O)N[C@@H](Cc2c[nH]c3ccc(F)cc23)C(=O)N[C@@H](CC(=O)O)C(=O)N[C@@H](Cc2ncc[nH]2)C(=O)N[C@@H](Cc2ccc(O)cc2)C(=O)N1 [Compound 458] (G[Trp(5-F)][Trp(5-F)]D[Ala(imidazol-2-yl)]Y[Phe(3-CH2NH2)]-NH2; linker N-7 via Glutaryl)
21000 to 50000 | 500 to 5000 | CCCc1cccc(C[C@@H]2NC(=O)[C@@H](C)NC(=O)[C@H](C)NC(=O)CCSCc3cccc(c3)CSCCNC(=O)[C@]3(C)CCCN3C(=O)[C@H](Cc3ccc(OC)cc3)NC[C@H]([C@@H](C)OC)NC(=O)[C@@H]3[C@@H](O)CCN3C(=O)[C@H](Cc3c[nH]c4ccc(F)cc34)NC2=O)c1 [Compound 459]
100 to 1000 | 500 to 5000 | COc1ccc(C[C@@H]2NC(=O)[C@H](Cc3ncc[nH]3)NC(=O)[C@H](CC(=O)O)NC(=O)[C@H](Cc3c[nH]c4ccc(F)cc34)NC(=O)[C@H](Cc3c[nH]c4ccc(F)cc34)NC(=O)[C@@H](C)NC(=O)[C@H](CCCCN(C)C)NC(=O)CCSCc3cc(F)cc(c3)CSCCNC(=O)[C@]3(C)CCCN3C2=O)cc1 [Compound 466] (cyclo(D[Ala(imidazol-2-yl)]Y(Me)[αMeP][X3][Lys(Me2)][dA][Trp(5-F)][Trp(5-F)]))
21000 to 50000 | 500 to 5000 | CCCCCCCCCCCCCCCC(=O)N[C@@H](CCC(=O)NCCOCCOCCC(=O)NCCOCCOCC(=O)NCCCC[C@H](NC(=O)COCCOCCOCCNC(=O)[C@@H]1CSCc2cccc(c2)CSCCC(=O)N[C@@H](CCCCN)C(=O)N[C@H](C)C(=O)N[C@@H](Cc2c[nH]c3ccc(F)cc23)C(=O)N[C@@H](Cc2c[nH]c3ccc(F)cc23)C(=O)N[C@@H](CC(=O)O)C(=O)N[C@@H](Cc2cnc[nH]2)C(=O)N[C@@H](Cc2ccc(O)cc2)C(=O)N2CCC[C@@]2(C)C(=O)N1)C(N)=O)C(=O)O [Compound 473] ([Mpa]K[dA][Trp(5-F)][Trp(5-F)]DHY[αMeP]C[AEEEA]K([AEEA-PEG2-γGlu-Palmitoyl])-NH2; linker 1-10 via mXylylene)
1000 to 12100 | 500 to 5000 | CCCCCCCCCCCCCCCC(=O)N[C@@H](CCC(=O)NCCOCCOCCC(=O)NCCOCCOCC(=O)NCCCC[C@H](NC(=O)COCCOCCOCCOCCOCCOCCOCCOCCOCCOCCOCCOCCNC(=O)[C@@H]1CSCc2cccc(c2)CSCCC(=O)N[C@@H](CCCCN)C(=O)N[C@H](C)C(=O)N[C@@H](Cc2c[nH]c3ccc(F)cc23)C(=O)N[C@@H](Cc2c[nH]c3ccc(F)cc23)C(=O)N[C@@H](CC(=O)O)C(=O)N[C@@H](Cc2cnc[nH]2)C(=O)N[C@@H](Cc2ccc(O)cc2)C(=O)N2CCC[C@@]2(C)C(=O)N1)C(N)=O)C(=O)O [Compound 474]
21000 to 50000 | 500 to 5000 | C[C@@]12CCCN1C(=O)[C@H](Cc1ccc(O)cc1)NC(=O)[C@H]1CS[C@H]3CC[C@H](NC(=O)[C@H](Cc4c[nH]c5ccc(F)cc45)NC(=O)[C@H](Cc4c[nH]c5ccc(F)cc45)NC(=O)CNC(=O)[C@H](CCCCN)NC(=O)CCSCc4cccc(c4)CSC[C@@H](C(N)=O)NC2=O)C(=O)N31 [Compound 475]
0.11 to 100 | 100 to 500 | CCCCCCCCCCCCCCCC(=O)N[C@@H](CCC(=O)NCCOCCOCC(=O)NCCOCCOCC(=O)NCc1cccc(C[C@@H]2NC(=O)[C@@H](C)NC(=O)[C@H](CCCCN)NC(=O)CCSCc3cccc(c3)CSC[C@@H](C(N)=O)NC(=O)[C@]3(C)CCCN3C(=O)[C@H](Cc3ccc(O)cc3)NC(=O)[C@H](Cc3cnc[nH]3)NC(=O)[C@H](CC(=O)O)NC(=O)[C@H](Cc3c[nH]c4ccc(F)cc34)NC2=O)c1)C(=O)O [Compound 476] ([Mpa]K[dA][Phe(3-CH2NH2)]([AEEA-AEEA-γGlu-Palmitoyl])[Trp(5-F)]DHY[αMeP]C-NH2; linker 1-10 via mXylylene)
1000 to 12100 | 500 to 5000 | C[C@@]12CCCN1C(=O)[C@H](Cc1ccc(O)cc1)NC(=O)[C@H](Cc1c[nH]cn1)NC(=O)[C@H](CC(=O)O)NC(=O)[C@H](Cc1c[nH]c3ccc(F)cc13)NC(=O)[C@H](Cc1c[nH]c3ccc(F)cc13)NC(=O)c1coc(n1)[C@H](CCCCN)NC(=O)CCSCc1cccc(c1)CSC[C@@H](C(N)=O)NC2=O [Compound 477] ([Mpa][X49][Trp(5-F)][Trp(5-F)]DHY[αMeP]C-NH2; linker 1-9 via mXylylene)
21000 to 50000 | 500 to 5000 | CCCCCCCCCCCCCCCC(=O)N[C@@H](CCC(=O)NCCOCCOCCOCCOCCOCCOCCOCCOCCOCCOCCOCCOCCC(=O)NCc1cccc(C[C@@H]2NC(=O)[C@@H](C)NC(=O)[C@H](CCCCN)NC(=O)CCSCc3cccc(c3)CSC[C@@H](C(N)=O)NC(=O)[C@]3(C)CCCN3C(=O)[C@H](Cc3ccc(O)cc3)NC(=O)[C@H](Cc3cnc[nH]3)NC(=O)[C@H](CC(=O)O)NC(=O)[C@H](Cc3c[nH]c4ccc(F)cc34)NC2=O)c1)C(=O)O [Compound 478] ([Mpa]K[dA][Phe(3-CH2NH2)]([PEG12-γGlu-Palmitoyl])[Trp(5-F)]DHY[αMeP]C-NH2; linker 1-10 via mXylylene)
0.11 to 100 | 500 to 5000 | CCCCCCCCCCCCCCCC(=O)N[C@@H](CCC(=O)NCCOCCOCC(=O)NCCOCCOCC(=O)NCCCC[C@H](NC(=O)CCCCCCCCCCNC(=O)[C@@H]1CSCc2cccc(c2)CSCCC(=O)N[C@@H](CCCCN)C(=O)N[C@H](C)C(=O)N[C@@H](Cc2c[nH]c3ccc(F)cc23)C(=O)N[C@@H](Cc2c[nH]c3ccc(F)cc23)C(=O)N[C@@H](CC(=O)O)C(=O)N[C@@H](Cc2cnc[nH]2)C(=O)N[C@@H](Cc2ccc(O)cc2)C(=O)N2CCC[C@@]2(C)C(=O)N1)C(N)=O)C(=O)O [Compound 479] ([Mpa]K[dA][Trp(5-F)][Trp(5-F)]DHY[αMeP]C[Aun]K([AEEA-AEEA-γGlu-Palmitoyl])-NH2; linker 1-10 via mXylylene)
100 to 1000 | 500 to 5000 | CC1NC(=O)[C@H](Cc2c[nH]c3ccc(F)cc23)NC(=O)[C@H](Cc2c[nH]c3ccc(F)cc23)NC(=O)[C@@H](C)NC(=O)[C@H](CCCCN)NC(=O)CCSCc2cccc(c2)CSC[C@@H](C(N)=O)NC(=O)[C@]2(C)CCCN2C(=O)[C@H](Cc2ccc(O)cc2)NC(=O)C2=CN=C1S2 (stereo partly shown) [Compound 480] ([Mpa]K[dA][Trp(5-F)][Trp(5-F)][X48]Y[αMeP]C-NH2; linker 1-9 via mXylylene)
1000 to 12100 | 500 to 5000 | C[C@@]12CCCN1C(=O)[C@H](Cc1ccc(O)cc1)NC(=O)[C@H](Cc1c[nH]cn1)NC(=O)[C@H](CC(=O)O)NC(=O)[C@H](Cc1c[nH]c3ccc(F)cc13)NC(=O)[C@H](Cc1c[nH]c3ccc(F)cc13)NC(=O)CNC(=O)[C@@H]1CCC(=O)N1CCCSCc1cccc(c1)CSC[C@@H](C(N)=O)NC2=O [Compound 481] (G[Trp(5-F)][Trp(5-F)]DHY[αMeP]C-NH2; linker N-8 via X1)
0.11 to 100 | 100 to 500 | C[C@@]12CCCN1C(=O)[C@H](Cc1ccc(O)cc1)NC(=O)[C@H](Cc1c[nH]cn1)NC(=O)[C@H](CC(=O)O)NC(=O)[C@H](Cc1c[nH]c3ccc(F)cc13)NC(=O)[C@H](Cc1c[nH]c3ccc(F)cc13)NC(=O)CNC(=O)[C@@H]1CCC(=O)N1CCCSCc1cccc(c1)CSC[C@@H](C(N)=O)NC2=O [Compound 482] (G[Trp(5-F)][Trp(5-F)]DHY[αMeP]C-NH2; linker N-8 via X1)
0.11 to 100 | 0.1 to 100 | COCCOCCOCCOCCC(=O)NCCCC[C@@H]1NC(=O)CCSCc2cccc(c2)CSC[C@@H](C(N)=O)NC(=O)[C@]2(C)CCCN2C(=O)[C@H](Cc2ccc(O)cc2)NC(=O)[C@H](Cc2cnc[nH]2)NC(=O)[C@H](CC(=O)O)NC(=O)[C@H](Cc2c[nH]c3ccc(F)cc23)NC(=O)[C@H](Cc2c[nH]c3ccc(F)cc23)NC(=O)CNC1=O [Compound 484] ([Mpa]K(X51)G[Trp(5-F)][Trp(5-F)]DHY[αMeP]C-NH2; linker 1-10 via mXylylene)
0.11 to 100 | 0.1 to 100 | C[C@@]12CCCN1C(=O)[C@H](Cc1ccc(O)cc1)NC(=O)[C@H](Cc1cnc[nH]1)NC(=O)[C@H](CC(=O)O)NC(=O)[C@H](Cc1c[nH]c3ccc(F)cc13)NC(=O)[C@H](Cc1c[nH]c3ccc(F)cc13)NC(=O)CNC(=O)[C@H](CCCCNC(=O)CCOCCOCCOCCOCCN)NC(=O)CCSCc1cccc(c1)CSC[C@@H](C(N)=O)NC2=O [Compound 485] ([Mpa]K(PEG4)G[Trp(5-F)][Trp(5-F)]DHY[αMeP]C-NH2; linker 1-10 via mXylylene)

SMILES | IC50 (PCSK9 [1]) [nM] | IC50 (PCSK9 [2]) [nM]
NC(=O)[C@@H]1Cc2cccc(c2)CNC(=O)CCCCC(=O)NCC(=O)N[C@@H](Cc2c[nH]c3ccc(F)cc23)C(=O)N[C@@H](Cc2c[nH]c3ccc(F)cc23)C(=O)N[C@@H](CC(=O)O)C(=O)N[C@@H](Cc2cnc[nH]2)C(=O)N[C@@H](Cc2ccc(O)cc2)C(=O)N1 [Compound 457] (G[Trp(5-F)][Trp(5-F)]DHY[Phe(3-CH2NH2)]-NH2; linker N-7 via Adipoyl) | 21000 to 50000 | 500 to 5000
